Reference: PubChem BioAssay AID330 (DTP/NCI, 2004)
“And” between values parts separate entries of the source, which are not always exact repeats. Equal entries are not always repeated. Inconclusive results and toxic doses are left out. The calls were made as follows: active = survival T/C of 150% or more; inactive = T/C below 125% in these data.

System: P388 leukemia ip, CD2F1 mice, survival T/C
Assay: NCI In Vivo Anticancer Drug Screen. Data for tumor model P388 Leukemia (intraperitoneal) in CD2F1 (CDF1) mice
Details: endpoint: median survival time, higher = longer survival
Outline: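 Mice carrying the transplanted tumor received test compound or vehicle. Survival was recorded in each group, and the value is the treated-group measurement divided by that of the vehicle-treated control group.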

[1] = dose: 50.0 mg/kg/injection, schedule: Q01DX005 (ip), vehicle: saline
[2] = dose: 100.0 mg/kg/injection, schedule: Q01DX005 (ip), vehicle: saline
[3] = dose: 200.0 mg/kg/injection, schedule: Q01DX005 (ip), vehicle: saline
[4] = dose: 25.0 mg/kg/injection, schedule: Q01DX009 (ip), vehicle: saline with Tween-80
[5] = dose: 50.0 mg/kg/injection, schedule: Q01DX009 (ip), vehicle: saline with Tween-80
[6] = dose: 100.0 mg/kg/injection, schedule: Q01DX009 (ip), vehicle: saline with Tween-80
[7] = dose: 200.0 mg/kg/injection, schedule: Q01DX009 (ip), vehicle: saline with Tween-80
[8] = dose: 60.0 mg/kg/injection, schedule: Q01DX005 (ip), vehicle: saline with Tween-80
[9] = dose: 120.0 mg/kg/injection, schedule: Q01DX005 (ip), vehicle: saline with Tween-80
[10] = dose: 240.0 mg/kg/injection, schedule: Q01DX005 (ip), vehicle: saline with Tween-80
[11] = dose: 12.5 mg/kg/injection, schedule: Q01DX009 (ip), vehicle: saline with Tween-80
[12] = dose: 50.0 mg/kg/injection, schedule: Q01DX009 (ip), vehicle: Klucel (hydroxypropylcellulose) (HPC)
[13] = dose: 100.0 mg/kg/injection, schedule: Q01DX009 (ip), vehicle: Klucel (hydroxypropylcellulose) (HPC)
[14] = dose: 200.0 mg/kg/injection, schedule: Q01DX009 (ip), vehicle: Klucel (hydroxypropylcellulose) (HPC)
[15] = dose: 25.0 mg/kg/injection, schedule: Q01DX001 (ip), vehicle: Klucel (hydroxypropylcellulose) (HPC)
[16] = dose: 50.0 mg/kg/injection, schedule: Q01DX001 (ip), vehicle: Klucel (hydroxypropylcellulose) (HPC)
[17] = dose: 100.0 mg/kg/injection, schedule: Q01DX001 (ip), vehicle: Klucel (hydroxypropylcellulose) (HPC)
[18] = dose: 50.0 mg/kg/injection, schedule: Q01DX009 (ip), vehicle: saline
[19] = dose: 100.0 mg/kg/injection, schedule: Q01DX009 (ip), vehicle: saline
[20] = dose: 200.0 mg/kg/injection, schedule: Q01DX009 (ip), vehicle: saline
[21] = dose: 50.0 mg/kg/injection, schedule: Q01DX005 (ip), vehicle: saline with Tween-80
[22] = dose: 100.0 mg/kg/injection, schedule: Q01DX005 (ip), vehicle: saline with Tween-80
[23] = dose: 200.0 mg/kg/injection, schedule: Q01DX005 (ip), vehicle: saline with Tween-80

Measured: T/C

CC12Cc3ccccc3CC1OCN1CN2COC2Cc3ccccc3CC21C (centres undefined)
inactive: [1] 105 % of control | [2] 98 % of control | [3] 90 % of control

Clc1cc(-c2csc(Cl)c2)cs1
inactive: [4] 97 % of control | [5] 103 % of control and 97 % of control | [6] 109 % of control | [7] 96 % of control

Cc1n[nH]c(=O)c2cc3oc4ccccc4c3n12
inactive: [8] 100 % of control | [9] 94 % of control | [10] 92 % of control

CCCC(OC(C)=O)C(C)[N+](=O)[O-] (centres undefined)
inactive: [11] 91 % of control | [4] 100 % of control | [5] 102 % of control | [6] 104 % of control | [7] 112 % of control

CC1(C)CO[Se](=O)OC1
inactive: dose: 3.13 mg/kg/injection, schedule: Q01DX009 (ip), vehicle: saline 114 % of control

S=C1SCN(c2ccc3c(c2)OCO3)CN1c1ccc2c(c1)OCO2
inactive: [12] 96 % of control | [13] 100 % of control | [14] 96 % of control

O=C1CC2(CCCc3sccc32)C(=O)N1 (centres undefined)
inactive: [8] 101 % of control | [9] 94 % of control | [10] 92 % of control

CC1OC(OC2C(OC3C[C@@]4(C)C(C[C@H](O)[C@H]5[C@H](C6(C)CCC(C(C)(C)O)O6)CCC54C)[C@]4(C)CC[C@@H](O)C(C)(C)C34)OC(CO)C(O)C2O)C(O)C(O)C1O (some centres undefined) (tested in a mixture with another compound)
inactive: [12] 101 % of control | [13] 101 % of control | [14] 94 % of control

C/C(=C\C(=O)c1ccccc1)Nc1noc(-c2ccccc2)n1
inactive: [8] 97 % of control | [9] 94 % of control | [10] 96 % of control

CC(=O)OCc1ccc(Cl)cc1
inactive: [5] 99 % of control | dose: 50.0 mg/kg/injection, schedule: Q04DX003 (ip), vehicle: saline 100 % of control | [6] 99 % of control | dose: 100.0 mg/kg/injection, schedule: Q04DX003 (ip), vehicle: saline 104 % of control | [7] 114 % of control | dose: 200.0 mg/kg/injection, schedule: Q04DX003 (ip), vehicle: saline 113 % of control | dose: 400.0 mg/kg/injection, schedule: Q01DX009 (ip), vehicle: saline with Tween-80 123 % of control

N#CC1C(C#N)C2(c3ccccc3)C(c3ccccc3)=NN(c3ccccc3)CC12 (centres undefined)
inactive: [15] 91 % of control | [16] 95 % of control | [17] 87 % of control

CC(C)Oc1nc(N2CCNCC2)nc2c1CCC2
inactive: dose: 15.0 mg/kg/injection, schedule: Q01DX005 (ip), vehicle: saline 101 % of control | dose: 30.0 mg/kg/injection, schedule: Q01DX005 (ip), vehicle: saline 94 % of control | dose: 60.0 mg/kg/injection, schedule: Q01DX005 (ip), vehicle: saline 101 % of control

Cc1ccc(C(O)(C(F)(F)F)C(O)(c2ccc(C)cc2)C(F)(F)F)cc1 (centres undefined)
inactive: [5] 107 % of control and 100 % of control | [6] 107 % of control and 104 % of control | [7] 101 % of control and 105 % of control

NC(=O)c1ccccc1NC(=O)CCCC(=O)O
inactive: [18] 98 % of control | [19] 108 % of control | [20] 97 % of control

O=C1CC(c2ccccc2)C(c2ccccc2)CO1 (centres undefined)
inactive: dose: 25.0 mg/kg/injection, schedule: Q04DX003 (ip), vehicle: Klucel (hydroxypropylcellulose) (HPC) 91 % of control | dose: 50.0 mg/kg/injection, schedule: Q04DX003 (ip), vehicle: Klucel (hydroxypropylcellulose) (HPC) 92 % of control | dose: 100.0 mg/kg/injection, schedule: Q04DX003 (ip), vehicle: Klucel (hydroxypropylcellulose) (HPC) 88 % of control and 92 % of control | dose: 400.0 mg/kg/injection, schedule: Q04DX003 (ip), vehicle: Klucel (hydroxypropylcellulose) (HPC) 87 % of control

CC(=NCc1ccccc1)NO
inactive: [1] 97 % of control | [2] 96 % of control

CC(C)(CNCc1ccccc1)COS(=O)(=O)O
inactive: dose: 100.0 mg/kg/injection, schedule: Q01DX001 (ip), vehicle: saline 110 % of control | dose: 200.0 mg/kg/injection, schedule: Q01DX001 (ip), vehicle: saline 105 % of control | dose: 400.0 mg/kg/injection, schedule: Q01DX001 (ip), vehicle: saline 100 % of control

CCCCCCC[As](C)(=O)O
inactive: dose: 12.5 mg/kg/injection, schedule: Q01DX001 (ip), vehicle: Klucel (hydroxypropylcellulose) (HPC) 104 % of control | [15] 111 % of control | dose: 400.0 mg/kg/injection, schedule: Q01DX001 (ip), vehicle: Klucel (hydroxypropylcellulose) (HPC) 96 % of control

CCCC(OC(=O)c1ccc([N+](=O)[O-])cc1)C(=O)O (centres undefined)
inactive: [15] 95 % of control | [16] 105 % of control | [17] 100 % of control

CC1(C)N=C(N)N=C(N)N1c1ccc(C(C#N)CCCc2ccccc2)cc1 (centres undefined)
inactive: dose: 7.5 mg/kg/injection, schedule: Q01DX005 (ip), vehicle: Klucel (hydroxypropylcellulose) (HPC) 100 % of control | dose: 15.0 mg/kg/injection, schedule: Q01DX005 (ip), vehicle: Klucel (hydroxypropylcellulose) (HPC) 101 % of control | dose: 30.0 mg/kg/injection, schedule: Q01DX005 (ip), vehicle: Klucel (hydroxypropylcellulose) (HPC) 103 % of control

C[C@@H]1C(=O)C[C@H]2C(C)(C)CCC[C@]2(C)[C@@]1(O)CCc1ccoc1
inactive: dose: 25.0 mg/kg/injection, schedule: Q01DX005 (ip), vehicle: Klucel (hydroxypropylcellulose) (HPC) 100 % of control | dose: 50.0 mg/kg/injection, schedule: Q01DX005 (ip), vehicle: Klucel (hydroxypropylcellulose) (HPC) 100 % of control | dose: 100.0 mg/kg/injection, schedule: Q01DX005 (ip), vehicle: Klucel (hydroxypropylcellulose) (HPC) 100 % of control | dose: 200.0 mg/kg/injection, schedule: Q01DX005 (ip), vehicle: Klucel (hydroxypropylcellulose) (HPC) 96 % of control

CCB(CC)OC1OC(C2COB(CC)O2)C2OB(CC)OC12 (centres undefined)
inactive: [21] 103 % of control | [22] 95 % of control | [23] 101 % of control

COc1ccc(/C=C/Cc2cc3c(cc2OC)OCO3)cc1
inactive: [8] 104 % of control | [9] 93 % of control | [10] 90 % of control

O=C1C2C3C=CC(C2C(=O)N1CN1CCOCC1)C1C2C(=O)N(CN4CCOCC4)C(=O)C2C31 (centres undefined)
inactive: [4] 120 % of control

O=C1NS(=O)(=O)Oc2c1ccc1ccccc21
inactive: [11] 108 % of control | [4] 99 % of control | [5] 96 % of control | [6] 96 % of control | [7] 110 % of control

O=P1(c2ccccc2)C=C(c2ccccc2)NC(c2ccccc2)=C1
inactive: [21] 93 % of control | [23] 90 % of control

Nc1ncn[nH]1
inactive: [18] 99 % of control and 105 % of control | [19] 98 % of control and 97 % of control | [20] 100 % of control and 106 % of control | dose: 400.0 mg/kg/injection, schedule: Q01DX009 (ip), vehicle: saline 99 % of control

CC(=O)OCC1OC(Nc2[nH]c(=O)[nH]c(=O)c2C(=O)CCl)C(OC(C)=O)C(OC(C)=O)C1OC(C)=O (centres undefined)
inactive: dose: 100.0 mg/kg/injection, schedule: Q04DX002 (ip), vehicle: saline with Tween-80 121 % of control | dose: 200.0 mg/kg/injection, schedule: Q04DX002 (ip), vehicle: saline with Tween-80 111 % of control | dose: 400.0 mg/kg/injection, schedule: Q04DX002 (ip), vehicle: saline with Tween-80 99 % of control

CC(C)CC(=O)C1C(c2ccccc2)CC(=O)C(C(C)C)C1c1ccccc1 (centres undefined)
inactive: [21] 92 % of control | [22] 92 % of control

CCN(CC)CCCC(C)Nc1cc(/C=C/c2ccc(Cl)cc2)nc2ccc(N(C)C)cc12 (centres undefined)
inactive: dose: 7.5 mg/kg/injection, schedule: Q01DX005 (ip), vehicle: saline with Tween-80 100 % of control | dose: 15.0 mg/kg/injection, schedule: Q01DX005 (ip), vehicle: saline with Tween-80 104 % of control

CC(O)(CO)CC(C)(O)CO (centres undefined)
inactive: [1] 97 % of control | [2] 105 % of control | [3] 103 % of control

Cc1nnc2c([Se])nccn12
inactive: dose: 100.0 mg/kg/injection, schedule: Q01DX001 (ip), vehicle: saline with Tween-80 99 % of control | dose: 200.0 mg/kg/injection, schedule: Q01DX001 (ip), vehicle: saline with Tween-80 93 % of control
